This note sets out measurements from paper PMC10683027, “Discovery of tert-Butyl Ester Based 6-Diazo-5-oxo-L-norleucine Prodrugs for Enhanced Metabolic Stability and Tumor Delivery” (Journal of Medicinal Chemistry, 2023).

A short description of data set [1]: Metabolic stability in mouse plasma. To be noted: for Plasma: supplementary CSV, unit not given, matches Table 1 % remaining at 1 h, in %.
Data set [2] can be described thus: Metabolic stability in mouse intestinal homogenate (GIh). The following applies: for remaining at 1 h, 10 µM / remaining at 1 h, 10 μM: CES1–/–, mouse, intestinal homogenate; for Intestinal homogenate: supplementary CSV, unit not given, matches Table 1 % remaining at 1 h, in %.

As for `CN(C)CC(=O)N[C@@H](Cc1ccc(C(F)(F)F)cc1)C(=O)N[C@@H](CCC(=O)C=[N+]=[N-])C(=O)OC(C)(C)C` [Prodrug P17, tert-Butyl (S)-6-Diazo-2-((S)-2-(2-(dimethylamino)acetamido)-3-(4-(trifluoromethyl)phenyl)propanamido)-5-oxohexanoate], the fraction remaining at 1 h, 10 µM in data set [1] (CES1–/–, mouse, plasma) was 70 ± 14%; in data set [2] it was 76 ± 1%. In data set [1], this compound showed a Plasma of 70 ± 14. Also, the Intestinal homogenate in data set [2] came out at 76 ± 1.

On to `CC(C)(C)OC(=O)[C@H](CCC(=O)C=[N+]=[N-])NC(=O)[C@H](Cc1c[nH]c2ccccc12)NC(=O)CN1CCOCC1` [Prodrug P7, tert-Butyl (S)-2-((S)-3-(1H-Indol-3-yl)-2-(2-morpholinoacetamido)propanamido)-6-diazo-5-oxohexanoate], for which the fraction remaining at 1 h, 10 µM came to 95 ± 3% in data set [1] (CES1–/–, mouse, plasma) and 83 ± 1% in data set [2]. In data set [2], this compound had an Intestinal homogenate of 83 ± 1.

As to `CCOC(=O)[C@H](CCC(=O)C=[N+]=[N-])NC(=O)[C@H](Cc1c[nH]c2ccccc12)NC(C)=O` [Prodrug P2, Ethyl (S)-2-((S)-2-Acetamido-3-(1H-indol-3-yl)propanamido)-6-diazo-5-oxohexanoate], in data set [2], the fraction remaining at 1 h, 10 µM was found to be 2%; the fraction remaining at 1 h, 10 μM was less than 10%; the Intestinal homogenate turned out to be 2 ± 0.

Regarding `C[C@H](NC(=O)CN(C)C)C(=O)N[C@@H](CCC(=O)C=[N+]=[N-])C(=O)OC(C)(C)C` [Prodrug P19, tert-Butyl (S)-6-Diazo-2-((S)-2-(2-(dimethylamino)acetamido)propanamido)-5-oxohexanoate], the share remaining at 1 h, 10 µM in data set [1] (CES1–/–, mouse, plasma) came out at 99 ± 2%. Further, in data set [1], the Plasma was found to be 99 ± 2. In data set [2], the share remaining at 1 h, 10 µM was 86 ± 4% and the Intestinal homogenate stood at 86 ± 4.

In the case of `CN(C)CC(=O)N[C@H](C(=O)N[C@@H](CCC(=O)C=[N+]=[N-])C(=O)OC(C)(C)C)c1ccccc1` [Prodrug P13, tert-Butyl (S)-6-Diazo-2-((S)-2-(2-(dimethylamino)acetamido)-2-phenylacetamido)-5-oxohexanoate], the fraction remaining at 1 h, 10 μM in data set [1] (CES1–/–, mouse, plasma) is 92 ± 1%. The compound further gave a Plasma in data set [1] of 92 ± 1. Further, in data set [2], the share remaining at 1 h, 10 μM stood at 92 ± 1% and the Intestinal homogenate was 92 ± 1.

On to `CNC(=O)[C@H](CCC(=O)C=[N+]=[N-])NC(=O)[C@H](Cc1c[nH]c2ccccc12)NC(C)=O` [Prodrug P6, (S)-2-((S)-2-Acetamido-3-(1H-indol-3-yl)propanamido)-6-diazo-N-methyl-5-oxohexanamide], for which the fraction remaining at 1 h, 10 µM in data set [1] (CES1–/–, mouse, plasma) was determined as 102 ± 1%. In data set [1], this compound gave a Plasma of 102 ± 1. In addition, in data set [2], the fraction remaining at 1 h, 10 µM was 77 ± 1%; the fraction remaining at 1 h, 10 μM was greater than 50%; the Intestinal homogenate amounted to 77 ± 1.

For `CN(C)CC(=O)N[C@@H](Cc1cn(C)c2ccccc12)C(=O)N[C@@H](CCC(=O)C=[N+]=[N-])C(=O)OC(C)(C)C` [Prodrug P10, tert-Butyl (S)-6-Diazo-2-((S)-2-(2-(dimethylamino)acetamido)-3-(1-methyl-1H-indol-3-yl)propanamido)-5-oxohexanoate], the fraction remaining at 1 h, 10 µM was found to be 97 ± 2% in data set [1] (CES1–/–, mouse, plasma) and 87 ± 2% in data set [2]. Also, in data set [1], the Plasma amounted to 97 ± 2. In data set [2], the Intestinal homogenate came out at 87 ± 2.

As for `CN(C)CC(=O)N[C@@H](Cc1cccc(F)c1)C(=O)N[C@@H](CCC(=O)C=[N+]=[N-])C(=O)OC(C)(C)C` [Prodrug P16, tert-Butyl (S)-6-Diazo-2-((S)-2-(2-(dimethylamino)acetamido)-3-(3-fluorophenyl)propanamido)-5-oxohexanoate], the amount remaining at 1 h, 10 µM in data set [1] (CES1–/–, mouse, plasma) was 99 ± 3%. In data set [1], the Plasma amounted to 99 ± 3. Moreover, in data set [2], the share remaining at 1 h, 10 µM came to 69 ± 7% and the Intestinal homogenate amounted to 69 ± 7.

With `CN(C)CC(=O)NCC(=O)N[C@@H](CCC(=O)C=[N+]=[N-])C(=O)OC(C)(C)C` [Prodrug P18, tert-Butyl (S)-6-Diazo-2-(2-(2-(dimethylamino)acetamido)acetamido)-5-oxohexanoate], the amount remaining at 1 h, 10 µM in data set [1] (CES1–/–, mouse, plasma) was 108 ± 1%. In addition, the Plasma in data set [1] is on record as 108 ± 1. Also, in data set [2], the amount remaining at 1 h, 10 µM worked out at 97 ± 1% and the Intestinal homogenate came out at 97 ± 1.

For `CN(C)CC(=O)N[C@@H](Cc1c[nH]c2ccccc12)C(=O)N[C@@H](CCC(=O)C=[N+]=[N-])C(=O)OC(C)(C)C` [Prodrug P9, tert-Butyl (S)-6-Diazo-2-((S)-2-(2-(dimethylamino)acetamido)-3-(1H-indol-3-yl)propanamido)-5-oxohexanoate], in data set [1] (CES1–/–, mouse, plasma), the fraction remaining at 1 h, 10 µM stood at 102 ± 2%. Besides, in data set [1], the Plasma is listed as 102 ± 2. In addition, in data set [2], the amount remaining at 1 h, 10 µM is 66 ± 1% and the Intestinal homogenate turned out to be 66 ± 1.

As to `CC(=O)N[C@@H](Cc1c[nH]c2ccccc12)C(=O)N[C@@H](CCC(=O)C=[N+]=[N-])C(=O)OC(C)(C)C` [Prodrug P5, tert-Butyl (S)-2-((S)-2-Acetamido-3-(1H-indol-3-yl)propanamido)-6-diazo-5-oxohexanoate], the amount remaining at 1 h, 10 µM in data set [1] (CES1–/–, mouse, plasma) worked out at 92 ± 1%. This compound showed a Plasma in data set [1] of 92 ± 1. Also, in data set [2], the share remaining at 1 h, 10 µM was 99 ± 1%; the amount remaining at 1 h, 10 μM is greater than 50%; the Intestinal homogenate turned out to be 99 ± 1.

Consider `CN(C)CC(=O)N[C@@H](Cc1ccc(F)cc1)C(=O)N[C@@H](CCC(=O)C=[N+]=[N-])C(=O)OC(C)(C)C` [Prodrug P15, tert-Butyl (S)-6-Diazo-2-((S)-2-(2-(dimethylamino)acetamido)-3-(4-fluorophenyl)propanamido)-5-oxohexanoate], for which the amount remaining at 1 h, 10 µM in data set [1] (CES1–/–, mouse, plasma) was 108 ± 1%. Further, in data set [1], the Plasma was 108 ± 1. Moreover, in data set [2], the share remaining at 1 h, 10 µM is 67 ± 1% and the Intestinal homogenate is 67 ± 1.

Consider `CN(C)CC(=O)N[C@@H](CC(C)(C)C)C(=O)N[C@@H](CCC(=O)C=[N+]=[N-])C(=O)OC(C)(C)C` [Prodrug P21, tert-Butyl (S)-6-Diazo-2-((S)-2-(2-(dimethylamino)acetamido)-4,4-dimethylpentanamido)-5-oxohexanoate], for which the fraction remaining at 1 h, 10 µM was found to be 98 ± 3% in data set [1] (CES1–/–, mouse, plasma) and 68 ± 1% in data set [2]. Moreover, the Plasma in data set [1] is given as 98 ± 3. The Intestinal homogenate in data set [2] was determined as 68 ± 1.

Turning to `COC(=O)[C@H](CCC(=O)C=[N+]=[N-])NC(=O)[C@H](Cc1c[nH]c2ccccc12)NC(C)=O` [Prodrug P1, Methyl (S)-2-((S)-2-Acetamido-3-(1H-indol-3-yl)propanamido)-6-diazo-5-oxohexanoate], in data set [2], the fraction remaining at 1 h, 10 µM amounted to 4%; the fraction remaining at 1 h, 10 μM was less than 10%; the Intestinal homogenate amounted to 4 ± 0.

In the case of `CC(=O)N[C@@H](Cc1c[nH]c2ccccc12)C(=O)N[C@@H](CCC(=O)C=[N+]=[N-])C(=O)OC1CC1` [Prodrug P3, Cyclopropyl (S)-2-((S)-2-Acetamido-3-(1H-indol-3-yl)propanamido)-6-diazo-5-oxohexanoate], in data set [2], the amount remaining at 1 h, 10 µM was 6%; the share remaining at 1 h, 10 μM is less than 10%; the Intestinal homogenate was determined as 6 ± 0.

For the compound `CC(C)C[C@H](NC(=O)CN(C)C)C(=O)N[C@@H](CCC(=O)C=[N+]=[N-])C(=O)OC(C)(C)C` [Prodrug P20, tert-Butyl (S)-6-Diazo-2-((S)-2-(2-(dimethylamino)acetamido)-4-methylpentanamido)-5-oxohexanoate], the amount remaining at 1 h, 10 µM in data set [1] (CES1–/–, mouse, plasma) worked out at 98 ± 2%. The Plasma in data set [1] is listed as 98 ± 2. In addition, in data set [2], the share remaining at 1 h, 10 µM came to 79% and the Intestinal homogenate is 79 ± 0.

For the compound `CC(=O)N[C@@H](Cc1c[nH]c2ccccc12)C(=O)N[C@@H](CCC(=O)C=[N+]=[N-])C(=O)OCC1CC1` [Prodrug P4, Cyclopropylmethyl (S)-2-((S)-2-Acetamido-3-(1H-indol-3-yl)propanamido)-6-diazo-5-oxohexanoate], in data set [2], the amount remaining at 1 h, 10 µM came to 1%; the fraction remaining at 1 h, 10 μM is less than 10%; the Intestinal homogenate was found to be 1 ± 0.

With `CN(C)CC(=O)N[C@H](Cc1ccccc1)C(=O)N[C@@H](CCC(=O)C=[N+]=[N-])C(=O)OC(C)(C)C` [Prodrug P12, tert-Butyl (S)-6-Diazo-2-((R)-2-(2-(dimethylamino)acetamido)-3-phenylpropanamido)-5-oxohexanoate], in data set [1] (CES1–/–, mouse, plasma), the share remaining at 1 h, 10 µM was 92%. The same compound displayed a Plasma in data set [1] of 92 ± 0. Moreover, in data set [2], the fraction remaining at 1 h, 10 µM came to 90 ± 3% and the Intestinal homogenate was determined as 90 ± 3.
